Assay results published in paper PMC10377353, “Targeted Destruction of S100A4 Inhibits Metastasis of Triple Negative Breast Cancer Cells” (Biomolecules, 2023).

Target: T1, S100A4 (Homo sapiens, UniProt P26447)
T1 construct: recombinant human (rh)S100A4, pET-15b, E. coli BL21 (DE3); with nonmuscle myosin IIA C-terminal fragment (rC-NMIIA, 149 terminal amino acids)
Assay: resonant mirror biosensor (SPR-type), inhibition of rhS100A4 binding to immobilised rC-NMIIA

T1 sequence (P26447 2-101): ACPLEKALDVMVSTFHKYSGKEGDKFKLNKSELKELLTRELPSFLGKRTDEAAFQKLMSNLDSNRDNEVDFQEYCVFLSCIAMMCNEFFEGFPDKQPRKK
T1 sequence (P35579 2-1960 partner): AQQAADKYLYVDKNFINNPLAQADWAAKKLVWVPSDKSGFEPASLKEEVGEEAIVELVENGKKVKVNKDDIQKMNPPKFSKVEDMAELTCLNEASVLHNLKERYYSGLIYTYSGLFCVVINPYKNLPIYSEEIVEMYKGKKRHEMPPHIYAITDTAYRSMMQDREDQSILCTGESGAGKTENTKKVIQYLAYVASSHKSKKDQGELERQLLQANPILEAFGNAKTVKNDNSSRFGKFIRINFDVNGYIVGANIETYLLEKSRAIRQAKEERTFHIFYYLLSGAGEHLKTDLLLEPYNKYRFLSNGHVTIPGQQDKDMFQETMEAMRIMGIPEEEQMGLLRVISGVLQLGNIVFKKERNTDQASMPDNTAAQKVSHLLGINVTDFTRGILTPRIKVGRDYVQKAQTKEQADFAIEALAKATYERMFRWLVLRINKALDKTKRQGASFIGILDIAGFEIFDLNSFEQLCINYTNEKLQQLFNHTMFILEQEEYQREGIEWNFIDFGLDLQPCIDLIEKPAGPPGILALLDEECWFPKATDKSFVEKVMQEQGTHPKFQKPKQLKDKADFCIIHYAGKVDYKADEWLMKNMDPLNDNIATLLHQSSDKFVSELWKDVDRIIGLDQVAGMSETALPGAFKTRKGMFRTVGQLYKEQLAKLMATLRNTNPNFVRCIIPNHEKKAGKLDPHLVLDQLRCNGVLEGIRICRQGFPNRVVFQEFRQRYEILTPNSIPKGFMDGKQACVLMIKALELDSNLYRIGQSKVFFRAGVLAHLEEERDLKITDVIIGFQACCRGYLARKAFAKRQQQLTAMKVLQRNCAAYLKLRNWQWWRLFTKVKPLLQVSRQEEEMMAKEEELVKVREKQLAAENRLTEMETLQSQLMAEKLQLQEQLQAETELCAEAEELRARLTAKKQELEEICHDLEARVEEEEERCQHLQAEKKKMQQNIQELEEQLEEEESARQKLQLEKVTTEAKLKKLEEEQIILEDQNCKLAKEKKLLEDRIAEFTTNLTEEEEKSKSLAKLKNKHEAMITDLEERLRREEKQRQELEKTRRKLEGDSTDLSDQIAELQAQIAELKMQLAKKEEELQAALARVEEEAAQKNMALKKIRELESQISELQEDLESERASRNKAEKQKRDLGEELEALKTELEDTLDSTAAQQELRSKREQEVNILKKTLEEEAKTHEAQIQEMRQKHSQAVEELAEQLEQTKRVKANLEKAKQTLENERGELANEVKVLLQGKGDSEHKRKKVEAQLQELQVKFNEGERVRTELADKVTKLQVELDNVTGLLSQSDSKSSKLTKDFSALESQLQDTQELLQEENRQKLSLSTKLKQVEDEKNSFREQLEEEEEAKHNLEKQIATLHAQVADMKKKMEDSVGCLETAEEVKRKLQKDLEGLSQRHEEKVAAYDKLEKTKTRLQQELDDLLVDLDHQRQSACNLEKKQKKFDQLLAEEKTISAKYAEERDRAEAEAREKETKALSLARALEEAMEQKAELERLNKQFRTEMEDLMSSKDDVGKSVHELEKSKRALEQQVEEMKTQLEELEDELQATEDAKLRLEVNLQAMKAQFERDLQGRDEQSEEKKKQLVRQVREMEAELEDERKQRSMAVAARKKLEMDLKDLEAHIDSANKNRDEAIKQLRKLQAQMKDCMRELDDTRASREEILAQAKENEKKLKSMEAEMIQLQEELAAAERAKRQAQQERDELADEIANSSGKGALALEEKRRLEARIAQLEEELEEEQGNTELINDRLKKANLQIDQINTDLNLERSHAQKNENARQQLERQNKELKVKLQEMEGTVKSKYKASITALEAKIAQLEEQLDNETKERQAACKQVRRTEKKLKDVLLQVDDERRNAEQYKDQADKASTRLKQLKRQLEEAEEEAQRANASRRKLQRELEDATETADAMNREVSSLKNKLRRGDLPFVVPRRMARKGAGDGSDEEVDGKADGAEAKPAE

**Q.** COC1(OC)[C@@]2(Cl)C(Cl)=C(Cl)[C@]1(Cl)[C@@H]1C(=O)N(c3ccccc3C)C(=O)[C@@H]12 [CT070909] was tested. Which inhibition at 33 µM did it give?
**A.** > 90%
